In US20090105283A1, “3-HYDROQUINAZOLIN-4-ONE DERIVATIVES FOR USE AS STEAROYL CoA DESATURASE INHIBITORS” (priority 2007, published 2009) one finds IC50 data, which are given here for 27 compounds.

Each structure is given as a SMILES string. Several values for one entry are separate records, joined by “and”; a condition that tells them apart may be missing. Equal values may be shown once.

The target of this test is T1, stearoyl-CoA desaturase (SCD) (Rattus norvegicus, UniProt P07308).
T1 construct: The microsomes were quickly thawed and added to assay buffer so that a concentration of 0.4 mg/ml was achieved; from tissue
T1 sequence (P07308 1-358): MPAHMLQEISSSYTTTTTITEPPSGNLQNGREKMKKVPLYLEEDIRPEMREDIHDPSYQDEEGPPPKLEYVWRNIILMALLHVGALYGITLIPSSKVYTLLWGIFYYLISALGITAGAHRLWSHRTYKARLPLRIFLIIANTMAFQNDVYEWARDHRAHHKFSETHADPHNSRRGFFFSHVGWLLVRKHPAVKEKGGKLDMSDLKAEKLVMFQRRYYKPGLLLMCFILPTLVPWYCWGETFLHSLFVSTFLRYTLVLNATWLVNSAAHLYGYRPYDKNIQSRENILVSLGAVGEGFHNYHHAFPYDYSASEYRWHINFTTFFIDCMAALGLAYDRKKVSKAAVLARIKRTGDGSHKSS
Nature of the test: SCD assay with rat liver microsomes ([3H]stearoyl CoA, adapted from Talamo and Bloch). Format: biochemical. Particulars: Table 1; rat liver microsomes 0.2 mg/ml assay final, [3H]stearoyl CoA substrate, 30 min preincubation, 45 min reaction, room temperature. An excerpt: Male Spraque Dawley Rats were placed on regimented fasting protocol for one week to stimulate SCD enzymatic activity. 48-hour periods were alternated between feeding and fasting to induce and down-regulate SCD activity with SCD activity being induced via carbohydrate rich diet prior to liver perfusion and collection.
The rats were anesthetized with Isoflurane inhalation anesthetic, the liver perfused with cold phosphate buffered saline (PBS), weighed, and chilled in cold homogenization buffer (250 mM sucrose, 10 mM Tris, 1 mM EDTA, pH 7.6.
The livers were finely minced and placed in homogenization tube. 40 mL of homogenization buffer was added to the homogenization tube and the liver homogenized and centrifuged in a pre-chilled […] for 10 min at 4° C.
Following centrifugation, the supernatant was collected and the pellet removed and discarded. The supernatant was centrifuge at 10,000 G for 35 minutes. Following centrifugation, the supernatant was collect and the pellet discarded. The supernatant was then centrifuged in a pre-chilled 45-Ti rotor at 130,000 G (41,000 RPM) for 90 minutes at 4° C.
The supernatant was then aspirated off and the collected microsomal pellet washed in 25 mL of Glycerol PBS (1×PBS 7.4, 20% Glycerol) and resuspended in 4-5 volumes of Glycerol PBS.
The protein concentration of the microsomal preparation was determined by BCA assay (Pierce) and the microsomes were aliquoted and stored at −80° C.
Biobeads were ground to a smaller size in a mortar and pestle and resuspended in 3.6% TCA. The beads were then filtered through […] mesh.
SCD was determined in the desaturase assay buffer. This assay buffer contained 0.1 M Tris buffer, pH 7.2, 2 mM NADH, 4.8 mM ATP, 0.5 mM CoA, 4.8 mM MgCl2, and 0.1% BSA.
1 μl of each compound of Formula I was added to an assay plate by a low volume (0.5-10 μL) multichannel pipette. A DMSO control was also prepared. The microsomes were quickly thawed and added to assay buffer so that a concentration of 0.4 mg/ml was achieved (0.2 mg/ml assay final). 50 μl of the microsome suspension in assay buffer was then added into each well in the compound assay plate, the plate was covered, and the microsomes preincubated with the compounds for 30 minutes on the orbital shaker, 50-75 rpm, at room temperature.
The reaction mixtures were then incubated for 45 minutes on the orbital shaker at 50-75 rpm at room temperature.
The reaction was terminated by the addition of 10 μl of 21% trichloroacetic acid (TCA) to the reaction mixture followed incubation on the orbital shaker for 30 minutes at 50-75 rpm at room temperature followed by centrifugation for 5 minutes at 3700 rpm.
50 μl of a 6% Bio-Bead suspension in H2O was added to the reaction mixture and the assay plate was sealed. The Bio-Bead mixture was incubated on the orbital shaker for 1 hour, 100-150 rpm at room temperature, and then the mixture was centrifuged at 2000 g for 5 minutes to pellet the Bio-Beads.
25 μl of the supernatant was harvested from each well and transferred to a detection plate. 100 μl of OptiPhase SuperMix scinitillation cocktail (containing sufficient NaOH to neutralize the TCA) was added and the solutions mixed by vigorous shaking (300-400 rpm) for 5 minutes at room temperature.

`O=C(Nc1ccc2ncn(Cc3ccc(Cl)c(Cl)c3)c(=O)c2c1)Oc1ccc(Cl)cc1` [LXX, N-{3-[(3,4-dichlorophenyl)methyl]-4-oxo(3-hydroquinazolin-6-yl)}(4-chlorophenoxy)carboxamide] registered an IC50 of 3.22 µM.
On to `O=C(Nc1ccc2ncn(Cc3ccc(Cl)c(Cl)c3)c(=O)c2c1)OCCc1ccccc1` [LXXI, N-{3-[(3,4-dichlorophenyl)methyl]-4-oxo(3-hydroquinazolin-6-yl)}(2-phenylethoxy)carboxamide], for which the IC50 turned out to be 4.38 µM.
Under `CC(=O)OCC(=O)Nc1ccc2c(=O)n(Cc3cccc(F)c3)cnc2c1` [LXXII, (N-{3-[(3-fluorophenyl)methyl]-4-oxo-3-hydroquinazolin-7-yl}carbamoyl)methyl acetate] stands 0.29 µM; under `O=C(Nc1ccc2c(=O)n(Cc3ccc(F)c(Cl)c3)cnc2c1)OCc1ccccc1` [LXXIII, N-{3-[(3-chloro-4-fluorophenyl)methyl]-4-oxo(3-hydroquinazolin-7-yl)}(phenylmethoxy)carboxamide], 0.29 µM.
Consider `O=C(Nc1ccc2c(=O)n(Cc3ccc(F)c(Cl)c3)cnc2c1)OCc1cccnc1` [LXXIV, N-{3-[(3-chloro-4-fluorophenyl)methyl]-4-oxo(3-hydroquinazolin-7-yl)}(3-pyridylmethoxy)carboxamide], for which the IC50 was 0.12 µM.
Then `O=C(Nc1ccc2ncn(Cc3ccc(Cl)c(Cl)c3)c(=O)c2c1)OCc1ccncc1` [LXXIX, N-{3-[(3,4-dichlorophenyl)methyl]-4-oxo(3-hydroquinazolin-6-yl)}(4-pyridylmethoxy)carboxamide], with 1 µM; and `CC(=O)OCC(=O)Nc1ccc2c(=O)n(Cc3ccc(F)c(Cl)c3)cnc2c1` [LXXV, (N-{3-[(3-chloro-4-fluorophenyl)methyl]-4-oxo-3-hydroquinazolin-7-yl}carbamoyl)methyl acetate], with 1.09 µM; and `O=C(Nc1ccc2c(=O)n(Cc3cccc(F)c3)cnc2c1)OCc1cccnc1` [LXXVI, N-{3-[(3-fluorophenyl)methyl]-4-oxo(3-hydroquinazolin-7-yl)}(3-pyridylmethoxy)carboxamide], with 1.34 µM.
`O=C(Nc1ccc2c(=O)n(Cc3ccc(Cl)c(F)c3)cnc2c1)OCc1cccnc1` [LXXVII, N-{3-[(4-chloro-3-fluorophenyl)methyl]-4-oxo(3-hydroquinazolin-7-yl)}(3-pyridylmethoxy)carboxamide] came in with an IC50 of 0.25 µM.
The compound `CC(=O)OCC(=O)Nc1ccc2c(=O)n(Cc3ccc(Cl)c(F)c3)cnc2c1` [LXXVIII, (N-{3-[(4-chloro-3-fluorophenyl)methyl]-4-oxo-3-hydroquinazolin-7-yl}carbamoyl)methyl acetate] displayed an IC50 of 1.02 µM.
`N#Cc1cccc(COC(=O)Nc2ccc3ncn(Cc4ccc(Cl)c(Cl)c4)c(=O)c3c2)c1` [LXXX, N-{3-[(3,4-dichlorophenyl)methyl]-4-oxo(3-hydroquinazolin-6-yl)}[(3-cyanophenyl)methoxy]carboxamide] registered an IC50 of 0.67 µM.
With `O=C(CO)Nc1ccc2c(=O)n(Cc3ccc(Cl)cc3)cnc2c1` [LXXXI, N-{3-[(4-chlorophenyl)methyl]-4-oxo(3-hydroquinazolin-7-yl)}-2-hydroxyacetamide], the IC50 worked out at 3.12 µM.
Compound `O=C(CO)Nc1ccc2c(=O)n(Cc3ccc(Cl)c(Cl)c3)cnc2c1` [LXXXII, N-{3-[(3,4-dichlorophenyl)methyl]-4-oxo(3-hydroquinazolin-7-yl)}-2-hydroxyacetamide] showed an IC50 of 0.35 µM.
Consider `O=C(Nc1ccc2c(=O)n(Cc3ccc(Cl)c(F)c3)cnc2c1)OCc1ccccc1` [LXXXIII, N-{3-[(4-chloro-3-fluorophenyl)methyl]-4-oxo(3-hydroquinazolin-7-yl)}(phenylmethoxy)carboxamide], for which the IC50 was determined as 0.21 µM.
In the case of `CN(CCOC(=O)Nc1ccc2ncn(Cc3ccc(Cl)c(Cl)c3)c(=O)c2c1)Cc1ccccc1` [LXXXIV, N-{3-[(3,4-dichlorophenyl)methyl]-4-oxo(3-hydroquinazolin-6-yl)}{2-[methylbenzylamino]ethoxy}carboxamide], 11 µM corresponded to half-maximal inhibition (IC50).
Then `O=C(Nc1ccc2ncn(Cc3ccc(Cl)c(Cl)c3)c(=O)c2c1)OCc1ccccn1` [LXXXIX, N-{3-[(3,4-dichlorophenyl)methyl]-4-oxo(3-hydroquinazolin-6-yl)}(2-pyridylmethoxy)carboxamide], with 0.78 µM; and `O=C(Nc1ccc2ncn(Cc3ccc(Cl)c(Cl)c3)c(=O)c2c1)OCC1CC1` [LXXXV, N-{3-[(3,4-dichlorophenyl)methyl]-4-oxo(3-hydroquinazolin-6-yl)}(cyclopropylmethoxy)carboxamide], with 2.97 µM; and `CN(C)CC(=O)OCC(=O)Nc1ccc2ncn(Cc3ccc(Cl)c(Cl)c3)c(=O)c2c1` [LXXXVI, (N-{3-[(3,4-dichlorophenyl)methyl]-4-oxo-3-hydroquinazolin-6-yl}carbamoyl)methyl 2-(dimethylamino)acetate], with 0.36 µM.
`O=C(CO)Nc1ccc2c(=O)n(Cc3ccc(F)c(Cl)c3)cnc2c1` [LXXXVII, N-{3-[(3-chloro-4-fluorophenyl)methyl]-4-oxo(3-hydroquinazolin-7-yl)}-2-hydroxyacetamide]: the IC50 is 2.32 µM and 2.23 µM.
Compound `O=C(NCc1ccccc1)Nc1ccc2ncn(Cc3ccc(Cl)c(Cl)c3)c(=O)c2c1` [V, N-{3-[(3,4-dichlorophenyl)methyl]-4-oxo(3-hydroquinazolin-6-yl)}[benzylamino]carboxamide] had an IC50 of 3.18 µM.
Regarding `Cc1nc2ccc(NC(=O)OCc3ccccc3)cc2c(=O)n1Cc1ccc(Cl)c(Cl)c1` [VI, N-{3-[(3,4-dichlorophenyl)methyl]-2-methyl-4-oxo(3-hydroquinazolin-6-yl)}(phenylmethoxy)carboxamide], the IC50 amounted to 20 µM.
As for `CC(C)COC(=O)Nc1ccc2ncn(Cc3ccc(Cl)c(Cl)c3)c(=O)c2c1` [VII, N-{3-[(3,4-dichlorophenyl)methyl]-4-oxo(3-hydroquinazolin-6-yl)}(2-methylpropoxy)carboxamide], half-maximal inhibition (IC50) was put at 7.9 µM.
Under `O=C(Nc1ccc2ncn(Cc3ccc(Cl)cc3)c(=O)c2c1)OCc1ccccc1` [VIII, N-{3-[(4-chlorophenyl)methyl]-4-oxo(3-hydroquinazolin-6-yl)}(phenylmethoxy)carboxamide] stands 0.19 µM; under `C=CCOC(=O)Nc1ccc2ncn(Cc3ccc(Cl)c(Cl)c3)c(=O)c2c1` [X, N-{3-[(3,4-dichlorophenyl)methyl]-4-oxo(3-hydroquinazolin-6-yl)}prop-2-enyloxycarboxamide], 1.5 µM.
Consider `CN(C)CC(=O)OCC(=O)Nc1ccc2c(=O)n(Cc3ccc(Cl)c(Cl)c3)cnc2c1` [XC, (N-{3-[(3,4-dichlorophenyl)methyl]-4-oxo-3-hydroquinazolin-7-yl}carbamoyl)methyl 2-(dimethylamino)acetate], for which half-maximal inhibition (IC50) was put at 0.31 µM.
In turn, `CCOC(=O)COC(=O)Nc1ccc2c(=O)n(Cc3ccc(Cl)c(Cl)c3)cnc2c1` [XCI, ethyl 2-(N-{3-[(3,4-dichlorophenyl)methyl]-4-oxo-3-hydroquinazolin-7-yl}carbamoyloxy)acetate] displayed an IC50 of 3.77 µM.
On to `COCCOCCOC(=O)Nc1ccc2ncn(Cc3ccc(Cl)c(Cl)c3)c(=O)c2c1` [XCII, N-{3-[(3,4-dichlorophenyl)methyl]-4-oxo(3-hydroquinazolin-6-yl)}[2-(2-methoxyethoxy)ethoxy]carboxamide], for which it took 11.7 µM to reach half-maximal inhibition (IC50).
